Results on one compound are retold here after US20120190659A1, “ANGIOGENESIS INHIBITORS” (Children's Medical Center Corporation, priority 2009, published 2012).

In data set [1] the test system is human umbilical vascular endothelial (HUVE) cells. In words: Compound toxicity in HUVE cells (morphology after 24 h culture). The data set is classed as cell-based. As to conditions: 50-2000 nM, 5% FBS/EGM2 media. Here is the method:
HUVE cells were cultured for 24 hours on standard tissue culture dishes in the presence of EJC 1-6 over a range of concentration (50-2000 nM). […] (FIGS. 1 and 2).

Data set [2] has the same test system. The data set is described as follows: HUVE cell growth (BrdU incorporation). The data set is classed as cell-based. On the procedure:
Incorporation of 5-bromo-2′-deoxyuridibe (BrdU) is a common method used to detect the DNA replication in actively proliferating cells. Inhibition of cell growth is inferred by the decrease of BrdU incorporation into the cells. […] The assay can be preformed in the presence or absence of growth factors such as VEGF, bFGF and PDGF. This assay was performed by a procedure described in Huang S, Chen C S, Ingber D E. “Control of cyclin D1, p 27(Kip1), and cell cycle progression in human capillary endothelial cells by cell shape and cytoskeletal tension.” Mol Biol Cell. 1998, 9:3179-93, the teachings of which are incorporated herein by reference.
In general terms: Dividing cells build labelled thymidine or BrdU into new DNA.

Data set [3] has the same test system. In words: HUVE cell migration, transwell migration assay stimulated by VEGF. The data set is classed as cell-based. As to conditions: 20 ng/ml VEGF. Here is the method: Cell migration is an important aspect of angiogenesis. The effect of the test compounds on HUVE cell motility as stimulated by VEGF was examined using a transwell migration assay. This assay was performed by a similar procedure described in Shimizu A, Mammoto A, Italiano J E Jr, Pravda E, Dudley A C, Ingber D E, Klagsbrun M. “ABL2/ARG tyrosine kinase mediates SEMA3F-induced RhoA inactivation and cytoskeleton collapse in human glioma cells.” J. Biol. Chem. 2008, 283:27230-8, the teaching of which are incorporated by reference.
Briefly, transwell membranes (Coster, N.Y.) were coated with 0.5% gelatin, and cells were seeded (10^5 cells/100 μl) with 0.3% FBS/EBM2. The test compound was added to the both sides of the chamber. Cells were stained with Giemsa solution 16 hours later, and counted in 10 random fields (×400).

Data set [4] has the same test system. In words: Tube formation of HUVE cells on Matrigel. The data set is classed as cell-based. On the procedure: The effect of an agent on tube formation of HUVE cells was determined by a procedure described in Grant D S, Kinsella J L, Kibbey M C, LaFlamme S, Burbelo P D, Goldstein A L, Kleinman H K “Matrigel induces thymosin beta 4 gene in differentiating endothelial cells.” J Cell Sci. 1995, 108:3685-94, the teachings of which are incorporated by reference.
Briefly, HUVE cells (10^4 cells/150 μl of EBM-2) were plated on Matrigel™ (BD biosciences) and incubated for 12-16 hrs in the presence of VEGF (20 ng/ml) and the test compound. Tube formation was assessed in 10 random fields (4×).

The subject of data set [5] is developing vasculature of the newborn mouse retina. The data set is described as follows: In vivo screening assay for inhibitors of retinal angiogenesis (intravitreous injection, newborn mice). As to conditions: 5-10 nmol in a single injection. The text has this:
Blood vessel formation is critical for organ formation in the body. Compounds that inhibit angiogenesis within specific tissue types have therapeutic potential. For example, compounds that are effective in the retina may be used for the treatment of many types of blindness and other opthalmological diseases. Therefore, an in vivo method to screen for compounds that inhibit the growing vascular networks within the developing whole retina in eyes of living newborn mice was developed.
To screen in vivo in the eye for inhibitors of retinal angiogenesis, we adapted and modified the system described in Mammoto, A., Connor, K. M., Mammoto, T., Yung, C. W., Huh, D., Aderman, C. M., Mostoslaysky, G., Smith, L. E. H., & Ingber, D. E. A mechanosensitive transcriptional mechanism that controls angiogenesis. Nature 457, 1103-1108 (2009); and Shih, S. C., Ju, M., Liu, N. & Smith, L. E. Selective stimulation of VEGFR-1 prevents oxygen-induced retinal vascular degeneration in retinopathy of prematurity. J. Clin. Invest. 112, 50-7 (2003), the teachings of both are incorporated herein by reference. This assay was performed by a procedure described in Chen J, Connor K M, Aderman C M, Smith L E. “Erythropoietin deficiency decreases vascular stability in mice.” J. Clin. Invest. 2008, 118:526-33, the teachings of which are incorporated herein by reference.
After intraperitoneal injection of Avertin (125-240 mg/kg), the eyelid of mice was opened in a gentle manner by using tiny sterile blunt forceps. Test compound was injected into the vitreous of one eye of the mouse and a vehicle was injected into the other eye of the same mouse at either P6 or P14. Injections were performed by inserting an Exmire microsyringe (MS-NE05, ITO Corp. Fuji, Japan) into the vitreous 1 mm posterior to the corneal limbus. Pupils were dilated with 1% tropicamide. Insertion and the injection (0.3-0.5 μL solution) were directly viewed through an operating microscope, taking care not to injure the lens or the retina. The time points for intravitreous injection were set at P6 and P14 because these stages represent distinct developmental stages during vascular network formation. Blood vessels start spreading over the surface of retinal tissue at early times (P4-P6), then these distributed blood vessels start migrating into the deeper layer of the retina to make a three-dimensional vascular network at later times (P6-P14). Thus, using this approach, screening for inhibitors of initiation of angiogenesis at early times, and agents that induce regression of preexisting capillary vessels at the later time point can be identified.
After injection, the eyelid was treated with bacitracin eye antibiotic ointment, and eyelids naturally reformed after the procedure. Vascular network formation in the retina was assessed two days after injection using flat-mounted, fluorescein-conjugated isolectin-staining and immunohistochemical analysis. Quantification of vessel density was performed with Adobe photoshop.

`CN(C)[C@H]1CC[C@H]2[C@@H](CC[C@@H]3[C@@H]2CC[C@]2(C)C(c4ccc5ccncc5c4)=CC[C@@H]32)C1` [EJC-2]: the “morphological change of HUVE cells” value in data set [1] was “No morphological change”. For the same compound, the “growth of HUVE cells (BrdU incorporation)” value in data set [2] (0, 200, 1000 and 2000 nM (FIG. 3B)) was “inhibit the growth”. Besides, the BrdU incorporation result in data set [2] (1 μM (FIG. 3A)) is “inhibit”. The “doses that inhibited BrdU incorporation” value in data set [2] (FIGS. 3A & 3B) is on record as > 200 nM. Also, the HUVE cell migration entry is “exhibited inhibitory activity” in data set [3] (200 nM test compound) and “inhibit” in data set [3] (1 μM (1000 nM) test compound). Besides, the tube formation result in data set [4] (200 nM, cultured with VEGF in the basal EBM2 medium) is “inhibited”; in data set [4] (2 μM) it was “inhibited”. The “retinal angiogenesis, morphological analysis” value in data set [5] is “appeared to inhibit retinal angiogenesis based on morphological analysis, but the sampling numbers were low and significant effects were not observed”.
